Paper PMC11207065, “Abietane Diterpenes from Medusantha martiusii and Their Anti-Neuroinflammatory Activity” (Molecules, 2024)
Each block holds one compound with its values, some of them ahead of it.

Key:
Format in all cases: cell-based
[1] = Cell viability (MTT assay) in BV2 cells; conditions: mouse, BV2 microglial cells, mean ± SEM (n = 5)
Experimental: The cytotoxicity of compounds 1–7 was evaluated using the MTT (3-(4,5-dimethylthiazol-2-yl)-2,5-diphenyltetrazolium bromide) assay. The microglial BV2 cell line was obtained from the Rio de Janeiro Cell Bank (BCRJ), Brazil. The cells were cultured in Roswell Park Memorial Institute medium (RPMI; Sigma Aldrich, St. Louis, MO, USA) supplemented with 10% fetal bovine serum (FBS; Gibco, Grand Island, NY, USA) and 1% penicillin-streptomycin (Sigma Aldrich) at 37 °C with 5% CO2. Cells were seeded into 96-well plates at 1 × 10^5 cells/mL and incubated overnight. After that, the cells were incubated with compounds 1 to 7 (12.5, 25, or 50 μM) in five replicates for 24 h. Then, 110 μL of the supernatant were removed, and 10 μL of MTT solution (5 mg/mL) (Sigma Aldrich, St. Louis, MO, USA) were added. The plates were further incubated for four hours, followed by the addition of sodium dodecyl sulfate (SDS) (100 µL/well) to dissolve the formazan. Optical densities were measured using a spectrophotometer (BioTek Instruments microplate reader, Sinergy HT, Winooski, VT, USA) at a wavelength of 570 nm.

[2] = test system: TNF-α release from LPS and IFN-γ-stimulated BV2 cells; assay: TNF-α measurement (ELISA) in LPS and IFN-γ-stimulated BV2 cells; conditions: 12.5 µM, 24 h
Experimental: (§1) To determine the NO and TNF-α levels, BV2 cells were seeded in 96-well plates (1 × 10^6 cells/mL) in RPMI medium supplemented with 10% FBS and 1% penicillin-streptomycin in a 5% CO2 incubator at 37 °C. After four hours, the cells were exposed to LPS (500 ng/mL, Sigma Aldrich) and IFN-γ (5 ng/mL, Thermo Fisher) in the absence or presence of compounds 1 to 7 at a final concentration of 12.5 µM (for NO and TNF-α measurement) or 3.125–25 µM (to calculate the IC50 values on NO production inhibition), in five replicates. Quercetin (20 µM) was used as a positive control. After 24 h, cell-free supernatants were collected for NO quantification using the Griess method or stored at −80 °C for cytokine concentration determination. The TNF-α concentrations in the BV2 cell culture supernatants were assessed via enzyme-linked immunosorbent assay (ELISA) with an Invitrogen kit (Thermo Fisher, Viena, Austria).

[3] = test system: nitric oxide production in LPS and IFN-γ-stimulated BV2 cells; assay: Nitric oxide (nitrite, Griess method) measurement in LPS and IFN-γ-stimulated BV2 cells; conditions: 24 h; for Effect on nitrite (NO) levels versus control group: LPS and IFN-γ-stimulated BV2 cells; for IC50: Mus musculus, BV-2, LPS (500 ng/mL) and IFN-γ (5 ng/mL)-stimulated BV2 cells, 3.125–25 µM, mean ± SEM, read-out: IC50 on nitric oxide production inhibition
Experimental: as §1

IC50 [3]: 3.12 ± 0.75 µM
Structure (SMILES): CC(C)C1=CC(=O)C2=C(C1=O)C(O)CC1C2(C)CC(O)C(O)C1(C)C (stereo not shown) [Compound 1, Medusanthol A]
viability at 24 h, 12.5 µM [1]: 88 ± 2.57% | viability at 24 h, 25 µM [1]: 85.1 ± 1.54% | viability at 24 h, 50 µM [1]: 76.3 ± 2.16% | Effect on TNF-α levels versus control group [2]: significantly reduced TNF-α levels | Effect on nitrite (NO) levels versus control group ([3]; 12.5 µM): significantly reduced nitrite levels

Structure (SMILES): CC(C)c1cc2c(cc1O)C1(C)CC(O)C(O)C(C)(C)C1CC2=O (stereo not shown) [Compound 2, Medusanthol B]
viability at 24 h, 12.5 µM [1]: 81.93 ± 0.65% | viability at 24 h, 25 µM [1]: 85.84 ± 0.85% | viability at 24 h, 50 µM [1]: 75 ± 3.11% | Effect on TNF-α levels versus control group [2]: significantly reduced TNF-α levels | Effect on nitrite (NO) levels versus control group ([3]; 12.5 µM): significantly reduced nitrite levels | IC50 [3]: 15.5 ± 7.56 µM

Structure (SMILES): CC(C)c1cc2c(cc1O)C1(C)CC(O)C(O)C(C)(C)C1CC2 (stereo not shown) [Compound 3, Medusanthol C]
viability at 24 h, 12.5 µM [1]: 87.4 ± 2.35% | viability at 24 h, 25 µM [1]: 82.2 ± 0.96% | viability at 24 h, 50 µM [1]: 76.4 ± 3.14% | Effect on nitrite (NO) levels versus control group ([3]; 12.5 µM): significantly reduced nitrite levels

Structure (SMILES): CC(=O)OC1CC(C)(C)C2CCc3cc(C(C)C)c(O)cc3C2(C(=O)O)C1 (stereo not shown) [Compound 5, Medusanthol D]
viability at 24 h, 12.5 µM [1]: 86.2 ± 4.53% | viability at 24 h, 25 µM [1]: 86.8 ± 2.52% | viability at 24 h, 50 µM [1]: 82.9 ± 3.63% | Effect on nitrite (NO) levels versus control group ([3]; 12.5 µM): No significant effect

Structure (SMILES): CC(=O)OC1CC(C)(C)C2CC3OC(=O)C2(C1)c1cc(O)c(C(C)C)cc1O3 (stereo not shown) [Compound 7, Medusanthol E]
viability at 24 h, 12.5 µM [1]: 82.74 ± 0.62% | viability at 24 h, 25 µM [1]: 84.9 ± 1.4% | viability at 24 h, 50 µM [1]: 81.8 ± 1.24% | Effect on nitrite (NO) levels versus control group ([3]; 12.5 µM): significantly reduced nitrite levels

IC50 [3]: 11.8 ± 1.5 µM
Structure (SMILES): O=c1c(O)c(-c2ccc(O)c(O)c2)oc2cc(O)cc(O)c12 [Quercetin, quercetin, reference compound]
Effect on nitrite (NO) levels versus control group ([3]; 20 µM (positive control)): significantly reduced nitrite levels

Structure (SMILES): CC(C)c1cc2c(cc1O)[C@@]1(C)C[C@@H](O)CC(C)(C)[C@@H]1CC2 [Compound 4, salviol]
viability at 24 h, 12.5 µM [1]: 92.29 ± 0.6% | viability at 24 h, 25 µM [1]: 85.41 ± 0.82% | viability at 24 h, 50 µM [1]: 73.6 ± 2.73% | Effect on nitrite (NO) levels versus control group ([3]; 12.5 µM): significantly reduced nitrite levels

Structure (SMILES): CC(C)c1cc2c(cc1O)[C@@]1(C)C[C@@H](O)CC(C)(C)[C@@H]1CC2=O [Compound 6, 2α-hydroxysugiol]
viability at 24 h, 12.5 µM [1]: 85.7 ± 1.11% | viability at 24 h, 25 µM [1]: 81.7 ± 1.37% | viability at 24 h, 50 µM [1]: 66.8 ± 3.61% | Effect on nitrite (NO) levels versus control group ([3]; 12.5 µM): No significant effect
